Active and inactive are the calls of the source.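 The calls were made as follows: active = potency EC50 for STAT1 activation at or below 10 micromolar; inactive = EC50 above 10 micromolar.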
Tested on: NIH 3T3 STAT1-luciferase reporter, luminescence
Assay: STAT1 signalling activators, dose response, cell-based, NIH 3T3, luciferase luminescence (AID 1397)
[1] = cells stimulated with IFN-gamma at EC80

SMILES | EC50 [1] | EC50 [nM]
CCN(CC)c1ccc2cc(C(=O)Nc3ccccn3)c(=O)oc2c1 | > 76 nM (inactive) | –
Cc1nc2ccc(-c3nc4ccccc4o3)cc2[nH]1 | 356 nM | –
O=C(NC(=S)Nc1ccc(F)cc1)c1ccc2c(c1)OCCO2 | 1000 nM | –
O=C(c1ccccc1)c1ccc(N2CCCC2)cc1 | 1970 nM | –
Cc1ccc(-c2cc3nc(C)cc(NCc4ccco4)n3n2)cc1 | 3430 nM | –
CCNc1nc(-c2cc3ccccc3o2)cs1 | 179 nM | –
CN(C)c1nc(N)nc(CSc2nc3cc(Cl)ccc3o2)n1 | 18600 nM (inactive) | –
CCOCC(=O)Nc1nc2ccc(OCC)cc2s1 | > 55700 nM (inactive) | –
COc1ccc(-c2nc3ccc([N+](=O)[O-])cc3[nH]2)cc1 | 126 nM | –
CC(C)=CC(=O)Nc1nc2ccc([N+](=O)[O-])cc2s1 | 3130 nM | –
Nc1ccc2nn(-c3ccccc3)nc2c1 | 1350 nM | –
O=C(/C=C/c1ccco1)Nc1ccccn1 | > 687 nM (inactive) | –
O=[N+]([O-])c1ccccc1OCCCn1cnc2ccccc21 | 1500 nM | –
CN(C)c1ccc(C(=O)OCC(=O)c2cccs2)cc1 | > 687 nM (inactive) | –
C=CCNC(=S)NNC(=O)COc1ccc2cc(Br)ccc2c1 | 3040 nM | –
O=C(Nc1nccs1)c1ccc(-c2ccc([N+](=O)[O-])cc2)o1 | 1220 nM | –
O=C(/C=C/Nc1ccc(F)cc1)c1ccc(Br)cc1 | 431 nM | –
Clc1ccc(-n2ncc3c(N4CCCC4)ncnc32)cc1 | > 55700 nM (inactive) | –
Clc1ccc(-n2ncc3c(NCC4CCCO4)ncnc32)cc1 (stereo not drawn) | 409 nM | –
CC(=O)COc1ccc2c(C)c(-c3ccccc3)c(=O)oc2c1 | 31500 nM (inactive) | –
CCOC(=O)c1ccc2nc(NC(C)=O)sc2c1 | 2540 nM | –
O=C(OCc1csc(-c2ccccc2)n1)c1cccs1 | > 687 nM (inactive) | –
CN(C)c1ccnc2sc(C(=O)c3ccccc3)c(N)c12 | 1970 nM | –
CC(=O)c1cccc(N/C=C\C(=O)c2ccc(C)cc2)c1 | > 687 nM (inactive) | –
C=CCNc1nc(-c2cc3ccccc3o2)cs1 | > 764 nM (inactive) | –
Nc1ccc2oc(-c3ccccc3Cl)nc2c1 | > 229 nM (inactive) | –
Cc1ncsc1C(=O)Nc1nc2c(s1)CCCC2 | 2680 nM | –

SMILES | EC50 [1] | EC50 [nM]
Cc1nnc(SCC(=O)Nc2ccc(-c3nc4ccccc4s3)cc2)s1 | 93 nM | –
O=C(O)c1ccccc1C(=O)Nc1ccc(-c2csc(-c3ccccc3)n2)cc1 | 3880 nM | –
O=C(/C=C/c1cccc(F)c1)N1CCc2ccccc21 | 210 nM | –
CC(=O)Nc1ccccc1C(=O)OCc1cccc(F)c1 | – | 3020
Cc1ccc(C(=O)N2CCc3ccccc32)o1 | > 687 nM (inactive) | –
CCOC(=O)c1cnc2c(-c3ccccc3)cnn2c1N | 229 nM | –
Cc1ccc(C(=O)Nc2nc3ccccc3s2)s1 | > 76 nM (inactive) | –
COc1ccc(-c2cc(C)nc3c(-c4ccccc4)cnn23)cc1 | > 76 nM (inactive) | –
NC(=O)Cc1ccc2sc(-c3ccccc3)nc2c1 | 463 nM | –
COc1cccc(NC(=O)Nc2ccc(C(C)(C)C)cc2)c1 | 2810 nM | –
O=C(NC(=S)Nc1ccccn1)c1ccc([N+](=O)[O-])cc1 | 525 nM | –
Cc1ccc(-c2cc(N)n(-c3ccccc3)n2)cc1 | 3000 nM | –
CCCOC(=O)c1ccc(-c2ccc(C=O)o2)cc1 | 436 nM | –
Nc1ccccc1Nc1cc(-c2ccccc2)[nH]n1 | 2720 nM | –
CCc1ccc(NC(=O)N2CCC(c3ccccc3)C2)cc1 (stereo not drawn) | 1370 nM | –
COc1cccc(N/C=C/C(=O)c2ccc(Cl)cc2)c1 | 114 nM | –
CCOC(=O)c1sc(NC(=O)c2sccc2C)cc1C | 233 nM | –
Cc1ccc(-c2cnc(-c3ccncc3)o2)cc1 | 3300 nM | –
O=C(Nc1ccc(-c2nc3cccnc3s2)cc1)c1ccco1 | 341 nM | –
Cc1ccc(/C=C/C(=O)N2CCCC(C)C2)cc1 (stereo not drawn) | > 687 nM (inactive) | –
O=C(/C=C/c1ccccc1)Nc1ccc(Cl)cn1 | 669 nM | –
COc1ccc(-c2cc3ncc(-c4ccccc4)c(N)n3n2)cc1 | 1210 nM | –
CCC(C)NC(=O)c1cc(-c2ccc(OC)cc2)on1 (stereo not drawn) | 1300 nM | –
CC(=O)NC(=S)Nc1sc2c(c1C#N)CCCCC2 | > 76 nM (inactive) | –
COc1ccc2c(c1)oc(=O)c1cc(OC)ccc12 | 4280 nM | –
CC(C)(C)N=C1NN=C(c2cc3ccccc3o2)CS1 | 825 nM | –

Reference: PubChem BioAssay AID1397 (The Scripps Research Institute Molecular Screening Center, 2008)
